Experimental data published in US20260262643A1, “HERBICIDAL BENZOXAZINES” (FMC CORPORATION, priority 2022, published 2026).

Experiments:
foxtail, giant [1] = test: Test A preemergence; format: in vivo, Setaria faberi; conditions: 1000 g ai/ha, 0 to 100 scale (0 no effect, 100 complete control), 10 days
Source text: (§1) Seeds of plant species selected from barnyardgrass (Echinochloa crusgalli), blackgrass (Alopecurus myosuroides), corn (Zea mays), foxtail, giant (giant foxtail, Setaria faberi), goosegrass (Eleusine indica), kochia (Bassia scoparia), oat, wild (wild oat, Avena fatua), pigweed, palmer (palmer amaranth, palmer pigweed, Amaranthus palmeri), Pigweed, Redroot (redroot pigweed, Amaranthus retroflexus), ragweed (common ragweed, Ambrosia artemisiifolia), ryegrass, Italian (italian ryegrass, Lolium multiflorum), soybean (Glycine max), and wheat (Triticum aestivum) were planted into a blend of loam soil and sand and treated preemergence with a directed soil spray using test chemicals formulated in a non-phytotoxic solvent mixture which included a surfactant. At the same time, plants selected from these crops and weed species and also galium (catchweed bedstraw, Galium aparine) and horseweed (Erigeron canadensis) were planted in pots containing the same blend of loam soil and sand and treated with postemergence applications of test chemicals formulated in the same manner. Plants ranged in height from 2 to 10 cm and were in the one- to two-leaf stage for the postemergence treatment. Treated plants and untreated controls were maintained in a greenhouse for 10 days, after which time all treated plants were compared to untreated controls and visually evaluated for injury. Plant response ratings, summarized in Table A, are based on a 0 to 100 scale where 0 is no effect and 100 is complete control. A dash (-) response means no test result.

blackgrass [2] = test: Test A preemergence; format: in vivo, Alopecurus myosuroides; conditions: 1000 g ai/ha, 0 to 100 scale (0 no effect, 100 complete control), 10 days
Source text: as §1

kochia [3] = test: Test A postemergence; format: in vivo, Bassia scoparia; conditions: 1000 g ai/ha, Postemergence; 0 to 100 scale
Source text: as §1

ragweed = test: Test A postemergence; format: in vivo, Ambrosia artemisiifolia; conditions: 1000 g ai/ha, Postemergence; 0 to 100 scale
Source text: as §1

goosegrass [4] = test: Test A preemergence; format: in vivo, Eleusine indica; conditions: 1000 g ai/ha, 0 to 100 scale (0 no effect, 100 complete control), 10 days
Source text: as §1

kochia [5] = test: Test A preemergence; format: in vivo, Bassia scoparia; conditions: 1000 g ai/ha, 0 to 100 scale (0 no effect, 100 complete control), 10 days
Source text: as §1

horseweed = test: Test A postemergence; format: in vivo, Erigeron canadensis; conditions: 1000 g ai/ha, Postemergence; 0 to 100 scale
Source text: as §1

goosegrass [6] = test: Test A postemergence; format: in vivo, Eleusine indica; conditions: 1000 g ai/ha, Postemergence; 0 to 100 scale
Source text: as §1

foxtail, giant [7] = test: Test A postemergence; format: in vivo, Setaria faberi; conditions: 1000 g ai/ha, Postemergence; 0 to 100 scale
Source text: as §1

ryegrass, Italian [8] = test: Test A preemergence; format: in vivo, Lolium multiflorum; conditions: 1000 g ai/ha, 0 to 100 scale (0 no effect, 100 complete control), 10 days
Source text: as §1

blackgrass [9] = test: Test A postemergence; format: in vivo, Alopecurus myosuroides; conditions: 1000 g ai/ha, Postemergence; 0 to 100 scale
Source text: as §1

pigweed, palmer [10] = test: Test A postemergence; format: in vivo, Amaranthus palmeri; conditions: 1000 g ai/ha, Postemergence; 0 to 100 scale
Source text: as §1

galium = test: Test A postemergence; format: in vivo, Galium aparine; conditions: 1000 g ai/ha, Postemergence; 0 to 100 scale
Source text: as §1

pigweed, palmer [11] = test: Test A preemergence; format: in vivo, Amaranthus palmeri; conditions: 1000 g ai/ha, 0 to 100 scale (0 no effect, 100 complete control), 10 days
Source text: as §1

ryegrass, Italian [12] = test: Test A postemergence; format: in vivo, Lolium multiflorum; conditions: 1000 g ai/ha, Postemergence; 0 to 100 scale
Source text: as §1

## Cc1nc(-c2cccc(C(=O)N3C[C@H](C)Oc4c(Cl)cccc43)c2)cs1 [Compound 125]
foxtail, giant [1]
  Plant response rating, Foxtail, Giant: 20
Blackgrass [2]
  Plant response rating, Blackgrass: 0
Kochia [3]
  Plant response rating, Kochia: 50
ragweed
  Plant response rating, Ragweed: 0
Goosegrass [4]
  Plant response rating, Goosegrass: 20
Kochia [5]
  Plant response rating, Kochia: 0
horseweed
  Plant response rating, Horseweed: 0
Goosegrass [6]
  Plant response rating, Goosegrass: 0
foxtail, giant [7]
  Plant response rating, Foxtail, Giant: 20
ryegrass, Italian [8]
  Plant response rating, Ryegrass, Italian: 60
Blackgrass [9]
  Plant response rating, Blackgrass: 20
pigweed, palmer [10]
  Plant response rating, Pigweed, Palmer: 40
galium
  Plant response rating, Galium: 40
pigweed, palmer [11]
  Plant response rating, Pigweed, Palmer: 30
ryegrass, Italian [12]
  Plant response rating, Ryegrass, Italian: 0
